Results on 17 molecules are retold here after patent US10717716B2, “1,3,4-oxadiazole derivative compounds as histone deacetylase 6 inhibitor, and the pharmaceutical composition comprising the same” (Chong Kun Dang Pharmaceutical Corp., priority 2015, dated 2020).

The target in experiment [1] is T1, human recombinant HDAC1 (Homo sapiens, UniProt Q13547).
T1 construct: purchased Enzo Life Science BML-SE456
The experiment is described as follows: HDAC1 enzyme activity inhibition assay (HDAC Fluorimetric Drug Discovery Kit). Particulars: human recombinant HDAC1, Fluor de Lys substrate 10 μM, 30° C. 60 minutes. Format: biochemical. The method in brief: (§1)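 Fluorimetric deacetylase assay: 5-fold serial compound dilutions, 0.3 μg recombinant human enzyme (HDAC1 or HDAC6, same protocol), 10 μM Fluor de Lys-SIRT1 substrate, 60 min at 30 °C. Signal developed 30 min, measured at 360/460 nm; IC50 values derived.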

The target in experiment [2] is T2, human recombinant HDAC6 (Homo sapiens, UniProt Q9UBN7).
T2 construct: purchased Calbiochem 382180
T2 sequence (Q9UBN7 1-1215): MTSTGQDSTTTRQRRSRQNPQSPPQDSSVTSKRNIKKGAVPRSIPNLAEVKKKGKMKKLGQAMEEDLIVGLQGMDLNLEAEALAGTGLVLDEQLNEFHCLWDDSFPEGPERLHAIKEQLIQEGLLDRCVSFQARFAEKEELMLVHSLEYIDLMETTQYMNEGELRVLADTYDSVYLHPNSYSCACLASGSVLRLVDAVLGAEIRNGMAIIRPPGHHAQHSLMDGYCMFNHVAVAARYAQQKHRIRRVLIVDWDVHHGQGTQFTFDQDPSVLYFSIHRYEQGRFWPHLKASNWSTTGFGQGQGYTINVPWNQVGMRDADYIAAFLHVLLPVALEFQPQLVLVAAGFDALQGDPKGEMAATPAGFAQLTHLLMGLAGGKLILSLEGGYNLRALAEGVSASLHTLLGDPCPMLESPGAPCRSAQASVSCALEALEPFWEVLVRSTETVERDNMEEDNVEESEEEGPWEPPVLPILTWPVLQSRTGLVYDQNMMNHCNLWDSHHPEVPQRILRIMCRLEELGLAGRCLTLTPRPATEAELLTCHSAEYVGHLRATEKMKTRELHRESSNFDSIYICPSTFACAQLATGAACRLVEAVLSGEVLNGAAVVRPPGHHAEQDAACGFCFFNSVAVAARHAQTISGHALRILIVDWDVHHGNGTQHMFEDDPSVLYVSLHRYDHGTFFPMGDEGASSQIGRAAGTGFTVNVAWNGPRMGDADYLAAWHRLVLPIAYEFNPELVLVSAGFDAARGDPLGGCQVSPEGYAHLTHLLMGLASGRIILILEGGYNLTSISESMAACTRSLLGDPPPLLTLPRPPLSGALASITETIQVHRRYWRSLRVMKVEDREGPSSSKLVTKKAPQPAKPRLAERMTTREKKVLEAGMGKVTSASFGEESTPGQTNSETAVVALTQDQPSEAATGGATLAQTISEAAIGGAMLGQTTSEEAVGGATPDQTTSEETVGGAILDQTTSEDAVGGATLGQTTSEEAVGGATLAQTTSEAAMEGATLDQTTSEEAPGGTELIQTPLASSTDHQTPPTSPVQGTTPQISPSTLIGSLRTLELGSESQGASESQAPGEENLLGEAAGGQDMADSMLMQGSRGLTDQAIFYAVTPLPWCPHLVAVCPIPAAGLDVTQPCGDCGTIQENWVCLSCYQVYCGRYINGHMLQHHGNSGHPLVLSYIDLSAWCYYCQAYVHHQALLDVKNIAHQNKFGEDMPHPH
The experiment is described as follows: HDAC6 enzyme activity inhibition assay (HDAC Fluorimetric Drug Discovery Kit). Format: biochemical. Particulars: for HDAC6 selectivity (fold): HDAC6 over HDAC1; for IC50: human recombinant HDAC6, same protocol as HDAC1, read-out: HDAC6. In short, it runs like this:
as §1

T1 sequence (Q13547 whole entry): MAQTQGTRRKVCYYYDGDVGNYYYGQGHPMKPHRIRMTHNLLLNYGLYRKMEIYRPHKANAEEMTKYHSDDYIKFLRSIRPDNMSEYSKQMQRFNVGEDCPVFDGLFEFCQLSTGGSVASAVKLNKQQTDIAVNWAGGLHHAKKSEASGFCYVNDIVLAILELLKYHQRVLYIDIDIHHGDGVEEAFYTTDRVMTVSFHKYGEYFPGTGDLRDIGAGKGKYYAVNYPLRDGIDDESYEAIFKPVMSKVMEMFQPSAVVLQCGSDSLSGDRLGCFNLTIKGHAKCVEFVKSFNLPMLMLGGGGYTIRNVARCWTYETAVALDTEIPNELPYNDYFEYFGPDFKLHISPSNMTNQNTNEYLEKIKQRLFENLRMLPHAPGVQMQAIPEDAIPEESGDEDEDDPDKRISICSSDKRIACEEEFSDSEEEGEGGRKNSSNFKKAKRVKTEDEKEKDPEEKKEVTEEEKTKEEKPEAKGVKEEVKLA

`O=C(N1CCOCC1)N(Cc1ccc(-c2nnc(C(F)F)o2)cc1F)c1ccc(F)cc1F` [Compound 21858, N-(4-(5-(difluoromethyl)-1,3,4-oxadiazol-2-yl)-2-fluorobenzyl)-N-(2,4-difluorophenyl)morpholine-4-carboxamide]: the IC50 in experiment [1] was determined as 37.1 µM. Further, in experiment [2], the “HDAC6 selectivity (fold)” value came to 966 fold and the IC50 worked out at 0.038 µM.
As for `O=C(N1CCOCC1)N(Cc1ccc(-c2nnc(C(F)(F)F)o2)cc1F)c1ccc(F)cc1F` [Compound 21859, N-(2,4-difluorophenyl)-N-(2-fluoro-4-(5-(trifluoromethyl)-1,3,4-oxadiazol-2-yl)benzyl)morpholine-4-carboxamide], the IC50 in experiment [1] came out at 23.5 µM; in experiment [2], 0.133 µM. Besides, the “HDAC6 selectivity (fold)” value in experiment [2] stood at 177 fold.
For `CCN1CCN(C(=O)N(Cc2ccc(-c3nnc(C(F)(F)F)o3)cc2)c2cccc(Cl)c2)CC1` [Compound 21860, N-(3-Chlorophenyl)-4-ethyl-N-(4-(5-(trifluoromethyl)-1,3,4-oxadiazol-2-yl)benzyl)piperazine-1-carboxamide], in that order: 18 µM, 0.22 µM and 82 fold.
For `CCN1CCN(C(=O)N(Cc2ccc(-c3nnc(C(F)(F)F)o3)cc2F)c2cccc(Cl)c2)CC1` [Compound 21861, N-(3-Chlorophenyl)-4-ethyl-N-(2-fluoro-4-(5-(trifluoromethyl)-1,3,4-oxadiazol-2-yl)benzyl)piperazine-1-carboxamide], the IC50 in experiment [1] was determined as 13.7 µM. In experiment [2], the “HDAC6 selectivity (fold)” value turned out to be 40 fold and the IC50 was found to be 0.343 µM.
`CCN1CCN(C(=O)N(Cc2ccc(-c3nnc(C(F)(F)F)o3)cc2)c2ccc(Cl)cc2)CC1` [Compound 21862, N-(4-Chlorophenyl)-4-ethyl-N-(4-(5-(trifluoromethyl)-1,3,4-oxadiazol-2-yl)benzyl)piperazine-1-carboxamide]: the IC50 in experiment [1] was found to be 33.7 µM. For the same molecule, in experiment [2], the “HDAC6 selectivity (fold)” value stood at 71 fold and the IC50 worked out at 0.472 µM.
For the molecule `CCN1CCN(C(=O)N(Cc2ccc(-c3nnc(C(F)(F)F)o3)cc2F)c2ccc(Cl)cc2)CC1` [Compound 21863, N-(4-Chlorophenyl)-4-ethyl-N-(2-fluoro-4-(5-(trifluoromethyl)-1,3,4-oxadiazol-2-yl)benzyl)piperazine-1-carboxamide], the IC50 in experiment [1] was determined as 25.8 µM. Also, in experiment [2], the “HDAC6 selectivity (fold)” value came to 65 fold and the IC50 was 0.4 µM.
For `CCN1CCN(C(=O)N(Cc2ccc(-c3nnc(C(F)(F)F)o3)cn2)c2ccc(Cl)cc2)CC1` [Compound 21864, N-(4-Chlorophenyl)-4-ethyl-N-((5-(5-(trifluoromethyl)-1,3,4-oxadiazol-2-yl)pyridin-2-yl)methyl)piperazine-1-carboxamide], in that order: 28.8 µM, 190 fold and 0.152 µM.
`CCN1CCN(C(=O)N(Cc2ccc(-c3nnc(C(F)(F)F)o3)cc2)c2cccc(F)c2)CC1` [Compound 21865, 4-Ethyl-N-(3-fluorophenyl)-N-(4-(5-(trifluoromethyl)-1,3,4-oxadiazol-2-yl)benzyl)piperazine-1-carboxamide]: the IC50 in experiment [1] came out at 16.8 µM; in experiment [2], 0.096 µM. The “HDAC6 selectivity (fold)” value in experiment [2] was 174 fold.
Regarding `CCN1CCN(C(=O)N(Cc2ccc(-c3nnc(C(F)(F)F)o3)cc2F)c2cccc(F)c2)CC1` [Compound 21866, 4-Ethyl-N-(2-fluoro-4-(5-(trifluoromethyl)-1,3,4-oxadiazol-2-yl)benzyl)-N-(3-fluorophenyl)piperazine-1-carboxamide], in experiment [1], the IC50 was found to be 23.9 µM. In addition, in experiment [2], the “HDAC6 selectivity (fold)” value is recorded as 174 fold and the IC50 was determined as 0.137 µM.
Taken in the same sequence, the figures for `CCN1CCN(C(=O)N(Cc2ccc(-c3nnc(C(F)(F)F)o3)cn2)c2cccc(F)c2)CC1` [Compound 21867, 4-Ethyl-N-(3-fluorophenyl)-N-((5-(5-(trifluoromethyl)-1,3,4-oxadiazol-2-yl)pyridin-2-yl)methyl)piperazine-1-carboxamide] were 35.9 µM, 489 fold and 0.073 µM.
As to `CCN1CCN(C(=O)N(Cc2ccc(-c3nnc(C(F)(F)F)o3)cc2)c2ccc(F)cc2)CC1` [Compound 21868, 4-Ethyl-N-(4-fluorophenyl)-N-(4-(5-(trifluoromethyl)-1,3,4-oxadiazol-2-yl)benzyl)piperazine-1-carboxamide], the IC50 in experiment [1] was 27.5 µM. In experiment [2], the “HDAC6 selectivity (fold)” value was determined as 172 fold and the IC50 was determined as 0.16 µM.
For `CCN1CCN(C(=O)N(Cc2ccc(-c3nnc(C(F)(F)F)o3)cc2F)c2ccc(F)cc2)CC1` [Compound 21869, 4-Ethyl-N-(2-fluoro-4-(5-(trifluoromethyl)-1,3,4-oxadiazol-2-yl)benzyl)-N-(4-fluorophenyl)piperazine-1-carboxamide], in that order: 18.9 µM, 137 fold and 0.138 µM.
For `CCN1CCN(C(=O)N(Cc2ccc(-c3nnc(C(F)(F)F)o3)cn2)c2ccc(F)cc2)CC1` [Compound 21870, 4-Ethyl-N-(4-fluorophenyl)-N-((5-(5-(trifluoromethyl)-1,3,4-oxadiazol-2-yl)pyridin-2-yl)methyl)piperazine-1-carboxamide], in that order: 45.1 µM, 400 fold and 0.113 µM.
Consider `CCN1CCN(C(=O)N(Cc2ccc(-c3nnc(C(F)(F)F)o3)cc2)c2cccc(OC)c2)CC1` [Compound 21871, 4-Ethyl-N-(3-methoxyphenyl)-N-(4-(5-(trifluoromethyl)-1,3,4-oxadiazol-2-yl)benzyl)piperazine-1-carboxamide], for which the IC50 in experiment [1] is 9.13 µM; in experiment [2], 0.321 µM. Further, the “HDAC6 selectivity (fold)” value in experiment [2] turned out to be 28 fold.
On to `CCN1CCN(C(=O)N(Cc2ccc(-c3nnc(C(F)(F)F)o3)cc2F)c2cccc(OC)c2)CC1` [Compound 21872, 4-Ethyl-N-(2-fluoro-4-(5-(trifluoromethyl)-1,3,4-oxadiazol-2-yl)benzyl)-N-(3-methoxyphenyl)piperazine-1-carboxamide], for which, in experiment [1], the IC50 was 9.43 µM. In experiment [2], the “HDAC6 selectivity (fold)” value is recorded as 38 fold and the IC50 came out at 0.249 µM.
Taken in the same sequence, the figures for `CCN1CCN(C(=O)N(Cc2ccc(-c3nnc(C(F)(F)F)o3)cn2)c2cccc(OC)c2)CC1` [Compound 21873, 4-Ethyl-N-(3-methoxyphenyl)-N-((5-(5-(trifluoromethyl)-1,3,4-oxadiazol-2-yl)pyridin-2-yl)methyl)piperazine-1-carboxamide] were 14.9 µM, 55 fold and 0.269 µM.
Consider `CCN1CCN(C(=O)N(Cc2ccc(-c3nnc(C(F)(F)F)o3)cc2)c2ccc(OC)cc2)CC1` [Compound 21874, 4-Ethyl-N-(4-methoxyphenyl)-N-(4-(5-(trifluoromethyl)-1,3,4-oxadiazol-2-yl)benzyl)piperazine-1-carboxamide], for which the IC50 in experiment [1] came out at 6.17 µM; in experiment [2] it was 0.308 µM. For the same molecule, in experiment [2], the “HDAC6 selectivity (fold)” value is given as 20 fold.
